Drawing on PubChem BioAssay AID192 (DTP/NCI, 2004), this text covers T/C for 13 molecules.

The assay concerns BDF1 mice, B16 melanoma ip, median survival T/C. The assay can be described thus: NCI In Vivo Anticancer Drug Screen. Data for tumor model B16 Melanoma (intraperitoneal) in B6D2F1 (BDF1) mice. The conditions noted are these: endpoint: median survival time, higher = longer survival. Summed up:
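Values are ratios of treated (T) to vehicle-control (C) measurements of survival or tumor size in tumor-bearing mice.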

Setting [1] is: dose: 100.0 mg/kg/injection, schedule: Q01DX009 (ip), vehicle: Klucel (hydroxypropylcellulose) (HPC).
Where [2] appears, read: dose: 200.0 mg/kg/injection, schedule: Q01DX009 (ip), vehicle: Klucel (hydroxypropylcellulose) (HPC).
Setting [3] is: dose: 400.0 mg/kg/injection, schedule: Q01DX009 (ip), vehicle: Klucel (hydroxypropylcellulose) (HPC).
The mark [4] stands for this setting: dose: 100.0 mg/kg/injection, schedule: Q01DX009 (ip), vehicle: saline with Tween-80.
[5] abbreviates: dose: 25.0 mg/kg/injection, schedule: Q01DX009 (ip), vehicle: Klucel (hydroxypropylcellulose) (HPC).
Setting [6] is: dose: 50.0 mg/kg/injection, schedule: Q01DX009 (ip), vehicle: Klucel (hydroxypropylcellulose) (HPC).
[7] abbreviates: dose: 25.0 mg/kg/injection, schedule: Q01DX009 (ip), vehicle: saline with Tween-80.
The mark [8] stands for this setting: dose: 50.0 mg/kg/injection, schedule: Q01DX009 (ip), vehicle: saline with Tween-80.

Values joined by “and” are separate entries in the source; they are usually repeats but may differ in a detail not shown here. Identical values can stand only once. Toxic doses and inconclusive results are not listed.

Take `CC[C@]12CN3CCc4c([nH]c5ccccc45)[C@@](C(=O)OC)(c4cc5c(cc4OC)N(C)[C@H]4[C@@](O)(C(=O)OC)[C@H](OC(C)=O)[C@]6(CC)C=CCN7CC[C@]54[C@@H]76)CC(C3)[C@H]1O2` (some centres undefined): the T/C by setting is: (dose: 0.05 mg/kg/injection, schedule: Q01DX009 (ip), vehicle: saline) 106 % of control; (dose: 0.1 mg/kg/injection, schedule: Q01DX009 (ip), vehicle: saline) 101 % of control; (dose: 0.2 mg/kg/injection, schedule: Q01DX009 (ip), vehicle: saline) 97 % of control; (dose: 0.4 mg/kg/injection, schedule: Q01DX009 (ip), vehicle: saline) 113 % of control; (dose: 0.75 mg/kg/injection, schedule: Q01DX009 (ip), vehicle: Klucel (hydroxypropylcellulose) (HPC)) 107 % of control; (dose: 0.75 mg/kg/injection, schedule: Q01DX009 (ip), vehicle: saline) 90 % of control. Further, the T/C runs as follows: (dose: 0.8 mg/kg/injection, schedule: Q01DX009 (ip), vehicle: saline) 116 % of control; (dose: 1.5 mg/kg/injection, schedule: Q01DX009 (ip), vehicle: Klucel (hydroxypropylcellulose) (HPC)) 115 % of control; (dose: 1.5 mg/kg/injection, schedule: Q04DX003 (ip), vehicle: saline) 102 % of control; (dose: 1.6 mg/kg/injection, schedule: Q01DX009 (ip), vehicle: saline) 113 % of control; (dose: 3.0 mg/kg/injection, schedule: Q01DX009 (ip), vehicle: saline) 187 % of control; (dose: 3.0 mg/kg/injection, schedule: Q04DX003 (ip), vehicle: saline) 111 % of control. The T/C reads like this: (dose: 3.2 mg/kg/injection, schedule: Q01DX009 (ip), vehicle: saline) 162 % of control; (dose: 4.0 mg/kg/injection, schedule: Q01DX009 (ip), vehicle: saline) 175 % of control and 202 % of control; (dose: 6.0 mg/kg/injection, schedule: Q01DX009 (ip), vehicle: saline) 221 % of control [middle of 4 runs]; (dose: 6.4 mg/kg/injection, schedule: Q01DX009 (ip), vehicle: saline) 157 % of control; (dose: 9.0 mg/kg/injection, schedule: Q01DX009 (ip), vehicle: saline) 212 % of control and 248 % of control; (dose: 12.0 mg/kg/injection, schedule: Q01DX009 (ip), vehicle: Klucel (hydroxypropylcellulose) (HPC)) 168 % of control. Also, the T/C is 161 % of control (dose: 12.0 mg/kg/injection, schedule: Q01DX009 (ip), vehicle: saline); 152 % of control (dose: 12.0 mg/kg/injection, schedule: Q04DX003 (ip), vehicle: saline); 169 % of control (dose: 12.8 mg/kg/injection, schedule: Q01DX009 (ip), vehicle: saline).

As for `Nc1ccccc1S(=O)(=O)Nc1ccccc1`, the T/C is 96 % of control under setting [1], 107 % of control under setting [2] and 110 % of control under setting [3].

As to `CC1(C)N=C(N)N=C(N)N1c1cccc(CNC(=O)Nc2cccc(S(=O)(=O)F)c2)c1`, the T/C (dose: 50.0 mg/kg/injection, schedule: Q01DX009 (ip), vehicle: saline) is 101 % of control.

With `O=[N+]([O-])c1cccc(S(=O)(=O)Nc2ccccc2Cl)c1`, the T/C by setting is: under setting [4], 90 % of control; (dose: 200.0 mg/kg/injection, schedule: Q01DX009 (ip), vehicle: saline with Tween-80) 95 % of control; (dose: 400.0 mg/kg/injection, schedule: Q01DX009 (ip), vehicle: saline with Tween-80) 95 % of control.

Consider `C=C1C(=O)OC2CC(C)C3C=CC(=O)C3CC12` (centres undefined), for which the T/C was 101 % of control (dose: 0.5 mg/kg/injection, schedule: Q01DX009 (ip), vehicle: Klucel (hydroxypropylcellulose) (HPC)); 109 % of control (dose: 1.0 mg/kg/injection, schedule: Q01DX009 (ip), vehicle: Klucel (hydroxypropylcellulose) (HPC)); 101 % of control (dose: 2.0 mg/kg/injection, schedule: Q01DX009 (ip), vehicle: Klucel (hydroxypropylcellulose) (HPC)).

For the molecule `CN1N=C(N)c2cn(C3OC(COP(=O)(O)O)C(O)C3O)c3ncnc1c23` (centres undefined), the T/C (dose: 6.25 mg/kg/injection, schedule: Q01DX009 (ip), vehicle: water) was 89 % of control and 92 % of control; the T/C (dose: 12.5 mg/kg/injection, schedule: Q01DX009 (ip), vehicle: water) was 90 % of control; the T/C (dose: 25.0 mg/kg/injection, schedule: Q01DX009 (ip), vehicle: water) was 93 % of control; the T/C (dose: 50.0 mg/kg/injection, schedule: Q01DX009 (ip), vehicle: water) was 96 % of control; the T/C (dose: 100.0 mg/kg/injection, schedule: Q01DX009 (ip), vehicle: water) is 88 % of control.

As for `CC(Cc1ccccc1)NCCc1c2ccccc2nc2ccccc12` (centres undefined), the T/C was 92 % of control (dose: 12.5 mg/kg/injection, schedule: Q01DX009 (ip), vehicle: Klucel (hydroxypropylcellulose) (HPC)); 86 % of control and 100 % of control under setting [5]; 90 % of control and 92 % of control under setting [6]; 92 % of control under setting [2].

As for `N#CC1CS(=O)(=O)C1`, the T/C reads like this: (dose: 25.0 mg/kg/injection, schedule: Q04DX003 (ip), vehicle: saline with Tween-80) 104 % of control; (dose: 50.0 mg/kg/injection, schedule: Q04DX003 (ip), vehicle: saline with Tween-80) 98 % of control; (dose: 100.0 mg/kg/injection, schedule: Q04DX003 (ip), vehicle: saline with Tween-80) 99 % of control and 113 % of control.

As for `CCO/C=C1\SC(=S)N(c2ccccc2C)C1=O`, the T/C is 92 % of control under setting [7], 90 % of control under setting [8] and 91 % of control under setting [4].

On to `OC(CCN1CCCC1)(c1ccccc1)C1CCCCC1` (centres undefined), for which the T/C (dose: 6.25 mg/kg/injection, schedule: Q01DX009 (ip), vehicle: Klucel (hydroxypropylcellulose) (HPC)) is 101 % of control; the T/C under setting [5] was 98 % of control; the T/C under setting [6] was 93 % of control; the T/C under setting [1] was 87 % of control.

For `CCCCCCCCCCCCSCCNC(=O)CCl`, the T/C runs as follows: under setting [1], 112 % of control; under setting [2], 100 % of control; under setting [3], 96 % of control.

As for `Cc1cccc2c(C(=O)O)cc(-c3ccc(Cl)cc3)nc12`, the T/C is, setting by setting: (dose: 12.5 mg/kg/injection, schedule: Q01DX009 (ip), vehicle: saline with Tween-80) 97 % of control; under setting [7], 97 % of control; under setting [8], 95 % of control.

Regarding `CCOC1=C(Br)C=CN(S(=O)(=O)c2ccc(C)cc2)c2ccc(OC)cc21`, the T/C runs as follows: (dose: 100.0 mg/kg/injection, schedule: Q04DX003 (ip), vehicle: Klucel (hydroxypropylcellulose) (HPC)) 96 % of control; (dose: 200.0 mg/kg/injection, schedule: Q04DX003 (ip), vehicle: Klucel (hydroxypropylcellulose) (HPC)) 90 % of control; (dose: 400.0 mg/kg/injection, schedule: Q04DX003 (ip), vehicle: Klucel (hydroxypropylcellulose) (HPC)) 91 % of control.
